Laboratory results as given in patent US11058695B2, “Inhibitor of carbapenem-hydrolyzing class D beta-lactamases” (MYONGJI UNIVERSITY INDUSTRY AND ACADEMIA COOPERATION …, priority 2019, dated 2021).
Like-named read-outs stand apart in the source and are kept apart here.

Key:
OXA-48 = OXA-48 (Klebsiella pneumoniae, UniProt Q6XEC0); assay: OXA-48 enzyme inhibition assay with nitrocefin; type: biochemical; settings: OXA-48 103 pM
Description: (§1) The screened 7 compounds were dissolved in 100% DMSO at 10 mM. More diluted stocks were prepared as necessary. OXA-48 activity was determined by monitoring the change of absorbance at 482 nm using the characteristic molecular extinction coefficient (Δε482=15,900 M^−1 cm^−1) of nitrocefin (Oxoid, Hampshire, UK) by a Shimazu UV-1650PC spectrophotometer. Up to 5% DMSO, no influence on the enzyme activity of OXA-48 was observed. The assays were conducted in 10 mM MES (pH 6.8) containing OXA-48 (103 pM), 50 mM NaHCO3, and 20 μg/mL bovine serum albumin. After 5 min of pre-incubation of the purified OXA-48 and each inhibitor at 30° C., the enzymatic reaction was started by adding nitrocefin (100 μM). Residual velocities were determined after 5 minutes. The first 120 s of each reaction was used to measure initial rates. Data were evaluated using Microsoft Excel. Concentration-dependent inhibition of OXA-48 was measured using different concentrations of seven compounds resulting from two-fold dilution series. Reaction progress at every concentration of seven compounds was measured in triplicates. IC50 values were calculated using 4-parameter log fits using XL Fit curve fitting software (www.idbs.com) for Excel using the following equation:
(§2) [formula] where y is the remaining enzyme activity (in %) and x is the corresponding concentration. […]

OXA-109 = OXA-109 (Acinetobacter baumannii, UniProt A8JZR7); assay: CHDL enzyme inhibition assay with nitrocefin; type: biochemical; settings: OXA-109 168 nM, 100 μM nitrocefin, 5 minute pre-incubation; read-out: IC50 against OXA-109
Description: as §1
(§3) [formula] where y is the remaining enzyme activity (in %) and x is the corresponding concentration. The fitted IC50 parameter is defined as the concentration giving a response half way between the fitted top (B) and bottom (A) of the curve.
(§4) To investigate the inhibitory effects of the novel inhibitor (PLPBA) against eight CHDLs belonging to six clinically-important CHDL subgroups(member of OXA-23 subgroup: OXA-23; member of OXA-24/40 subgroup: OXA-24/40; member of OXA-48 subgroup: OXA-48; members of OXA-51 subgroup: OXA-51 and OXA-109; member of OXA-58 subgroup: OXA-97; member of OXA-143 subgroup: OXA-143) and five CHDLs belonging to four emerging CHDL subgroups (member of OXA-211 subgroup: OXA-211; members of OXA-229 subgroup: OXA-229 and OXA-418; member of OXA-210 subgroup: OXA-210; and member of OXA-240 subgroup: OXA-240), the IC50 values for them were determined (Table 3). PLPBA was dissolved in 100% DMSO at 10 mM. More diluted stocks were prepared as necessary. Activities of CHDLs were determined by monitoring the change of absorbance at 482 nm. Up to 5% DMSO, no influence on the enzyme activities of CHDLs was observed. Each enzyme (OXA-23, 418 pM; OXA-24/40, 134 pM; OXA-48, 103 pM; OXA-51, 184 nM; OXA-97, 178 pM; OXA-109, 168 nM; OXA-143, 96 pM; OXA-210, 179 pM; OXA-211, 701 pM; OXA-229, 142 pM; OXA-240, 383 pM; OXA-418, 158 pM) was mixed with 100 μM nitrocefin after a 5 minute pre-incubation with PLPBA. The first 120 s of each reaction was used to measure initial rates. Data were evaluated using Microsoft Excel. Reaction progress at every concentration of PLPBA was measured in triplicates.

OXA-143 = OXA-143 (Acinetobacter baumannii, UniProt D0UHC8); assay: CHDL enzyme inhibition assay with nitrocefin; type: biochemical; settings: OXA-143 96 pM, 100 μM nitrocefin, 5 minute pre-incubation; read-out: IC50 against OXA-143
Description: as §1, §3, §4

OXA-210 = OXA-210 (Pseudomonas aeruginosa, UniProt F6ME16); assay: CHDL enzyme inhibition assay with nitrocefin; type: biochemical
Description: as §1, §3, §4

OXA-211 = OXA-211 (Acinetobacter johnsonii, UniProt G9JKV7); assay: CHDL enzyme inhibition assay with nitrocefin; type: biochemical; settings: OXA-211 701 pM, 100 μM nitrocefin, 5 minute pre-incubation; read-out: IC50 against OXA-211
Description: as §1, §3, §4

OXA-229 = OXA-229 (Acinetobacter bereziniae, UniProt I6S7G0); assay: CHDL enzyme inhibition assay with nitrocefin; type: biochemical; settings: OXA-229 142 pM, 100 μM nitrocefin, 5 minute pre-incubation; read-out: IC50 against OXA-229
Description: as §1, §3, §4

OXA-23 = OXA-23 (Acinetobacter baumannii, UniProt Q9L4P2); assay: CHDL enzyme inhibition assay with nitrocefin; type: biochemical; settings: OXA-23 418 pM, 100 μM nitrocefin, 5 minute pre-incubation; read-out: IC50 against OXA-23
Description: as §1, §3, §4

OXA-24/40 = OXA-24/40 (Acinetobacter baumannii, UniProt Q8RLA6); assay: CHDL enzyme inhibition assay with nitrocefin; type: biochemical
Description: as §1, §3, §4

OXA-51 = OXA-51 (Acinetobacter baumannii, UniProt Q5QT35); assay: CHDL enzyme inhibition assay with nitrocefin; type: biochemical; settings: OXA-51 184 nM, 100 μM nitrocefin, 5 minute pre-incubation; read-out: IC50 against OXA-51
Description: as §1, §3, §4

OXA-97 = OXA-97 (Acinetobacter baumannii, UniProt A5Y470); assay: CHDL enzyme inhibition assay with nitrocefin; type: biochemical; settings: OXA-97 178 pM, 100 μM nitrocefin, 5 minute pre-incubation; read-out: IC50 against OXA-97
Description: as §1, §3, §4

OXA-240 = OXA-240 (Pseudomonas aeruginosa, UniProt I6VVS5); assay: CHDL enzyme inhibition assay with nitrocefin; type: biochemical, P. aeruginosa; settings: OXA-240 383 pM, 100 μM nitrocefin, 5 minute pre-incubation; read-out: IC50 against OXA-240
Description: as §1, §2

Chain of OXA-48 (Q6XEC0 24-265 limits assumed, looked up): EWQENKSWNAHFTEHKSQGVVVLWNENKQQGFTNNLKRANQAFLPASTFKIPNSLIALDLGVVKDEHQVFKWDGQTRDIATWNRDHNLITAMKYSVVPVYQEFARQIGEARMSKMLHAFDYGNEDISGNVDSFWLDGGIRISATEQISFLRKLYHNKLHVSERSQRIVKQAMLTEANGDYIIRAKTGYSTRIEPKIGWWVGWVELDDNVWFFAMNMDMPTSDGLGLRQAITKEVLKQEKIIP
Chain of OXA-51 (Q5QT35 entry or part of it): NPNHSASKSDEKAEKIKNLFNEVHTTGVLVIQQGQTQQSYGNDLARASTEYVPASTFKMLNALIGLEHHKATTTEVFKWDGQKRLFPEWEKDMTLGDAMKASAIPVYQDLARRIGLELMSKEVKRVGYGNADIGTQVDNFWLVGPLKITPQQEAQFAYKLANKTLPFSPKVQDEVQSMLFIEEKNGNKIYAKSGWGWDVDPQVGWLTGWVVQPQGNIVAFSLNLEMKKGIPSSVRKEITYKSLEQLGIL
Chain of OXA-24/40 (Q8RLA6 entry or part of it): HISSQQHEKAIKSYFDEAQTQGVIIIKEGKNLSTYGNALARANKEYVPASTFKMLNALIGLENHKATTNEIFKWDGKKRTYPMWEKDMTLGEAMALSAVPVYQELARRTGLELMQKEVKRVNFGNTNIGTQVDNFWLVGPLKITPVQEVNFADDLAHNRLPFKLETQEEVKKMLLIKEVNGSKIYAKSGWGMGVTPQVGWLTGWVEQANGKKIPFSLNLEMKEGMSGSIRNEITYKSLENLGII
Chain of OXA-23 (Q9L4P2 31-273 limits assumed): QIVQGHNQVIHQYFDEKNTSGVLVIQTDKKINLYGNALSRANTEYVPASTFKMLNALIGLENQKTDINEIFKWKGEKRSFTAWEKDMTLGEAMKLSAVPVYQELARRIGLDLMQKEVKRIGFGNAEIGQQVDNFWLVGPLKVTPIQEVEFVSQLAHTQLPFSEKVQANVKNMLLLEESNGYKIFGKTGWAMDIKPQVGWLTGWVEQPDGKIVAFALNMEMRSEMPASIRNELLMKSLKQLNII
Chain of OXA-210 (F6ME16 entry or part of it): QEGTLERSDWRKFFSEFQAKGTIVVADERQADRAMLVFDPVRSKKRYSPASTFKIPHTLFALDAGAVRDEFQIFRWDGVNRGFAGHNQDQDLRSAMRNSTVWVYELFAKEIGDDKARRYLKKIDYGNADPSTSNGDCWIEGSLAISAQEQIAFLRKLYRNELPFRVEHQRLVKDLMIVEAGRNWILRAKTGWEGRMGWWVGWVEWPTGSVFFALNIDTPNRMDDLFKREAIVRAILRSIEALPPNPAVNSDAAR
Chain of OXA-97 (A5Y470 entry or part of it): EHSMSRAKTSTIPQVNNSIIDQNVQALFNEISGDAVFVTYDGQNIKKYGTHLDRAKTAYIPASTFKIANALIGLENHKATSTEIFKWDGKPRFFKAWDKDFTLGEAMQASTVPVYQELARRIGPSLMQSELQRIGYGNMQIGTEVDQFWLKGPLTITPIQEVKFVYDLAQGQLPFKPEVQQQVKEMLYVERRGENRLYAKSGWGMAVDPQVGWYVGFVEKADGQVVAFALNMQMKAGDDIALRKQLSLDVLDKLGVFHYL
Chain of OXA-143 (D0UHC8 entry or part of it): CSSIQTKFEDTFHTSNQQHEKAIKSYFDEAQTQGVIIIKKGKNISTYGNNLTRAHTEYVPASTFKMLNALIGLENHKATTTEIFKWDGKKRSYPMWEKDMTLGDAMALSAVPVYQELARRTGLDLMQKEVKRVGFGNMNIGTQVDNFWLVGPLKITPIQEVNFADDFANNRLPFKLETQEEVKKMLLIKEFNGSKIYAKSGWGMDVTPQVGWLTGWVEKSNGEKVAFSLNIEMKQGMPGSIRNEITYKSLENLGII
Chain of OXA-211 (G9JKV7 entry or part of it): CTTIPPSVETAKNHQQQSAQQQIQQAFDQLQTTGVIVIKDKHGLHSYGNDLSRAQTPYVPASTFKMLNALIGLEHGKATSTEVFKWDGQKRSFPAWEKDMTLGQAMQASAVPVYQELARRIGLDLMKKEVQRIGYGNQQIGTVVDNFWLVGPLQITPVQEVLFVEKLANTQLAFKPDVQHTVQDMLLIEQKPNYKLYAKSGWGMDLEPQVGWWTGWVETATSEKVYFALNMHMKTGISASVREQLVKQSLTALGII
Chain of OXA-240 (I6VVS5 21-266 limits assumed): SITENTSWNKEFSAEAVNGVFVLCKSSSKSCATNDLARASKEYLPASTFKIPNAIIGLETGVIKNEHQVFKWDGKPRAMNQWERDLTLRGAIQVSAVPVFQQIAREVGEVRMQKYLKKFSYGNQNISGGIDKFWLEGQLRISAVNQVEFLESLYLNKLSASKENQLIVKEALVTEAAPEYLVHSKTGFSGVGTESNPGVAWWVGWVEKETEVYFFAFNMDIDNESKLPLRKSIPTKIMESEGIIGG
Chain of OXA-229 (I6S7G0 entry or part of it): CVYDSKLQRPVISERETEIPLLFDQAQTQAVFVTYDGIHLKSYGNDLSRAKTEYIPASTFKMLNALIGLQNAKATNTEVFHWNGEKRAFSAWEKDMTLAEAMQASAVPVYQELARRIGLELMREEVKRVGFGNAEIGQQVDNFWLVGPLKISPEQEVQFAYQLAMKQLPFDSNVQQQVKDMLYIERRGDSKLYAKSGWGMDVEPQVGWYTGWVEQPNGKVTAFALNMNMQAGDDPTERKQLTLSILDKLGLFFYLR
Chain of OXA-109 (A8JZR7 entry or part of it): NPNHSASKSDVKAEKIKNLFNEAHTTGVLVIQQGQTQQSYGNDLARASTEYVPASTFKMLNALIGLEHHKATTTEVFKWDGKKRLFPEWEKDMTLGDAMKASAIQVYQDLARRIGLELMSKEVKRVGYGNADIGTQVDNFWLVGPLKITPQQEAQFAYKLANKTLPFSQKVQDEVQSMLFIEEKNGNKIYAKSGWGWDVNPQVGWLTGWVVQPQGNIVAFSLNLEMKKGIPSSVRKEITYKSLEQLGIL

OB(O)c1cccc(OCCc2ccccc2)c1 [Compound 1, [3-(2-Phenylethoxy)phenyl]boronic Acid]
IC50 (OXA-48; nitrocefin 100 μM, 5 min pre-incubation at 30° C., 10 mM MES pH 6.8, read-out: IC50 values on OXA-48 of the screened compounds): 155 µM
IC50 (OXA-48; Table 3, 100 μM nitrocefin, 5 minute pre-incubation, read-out: IC50 against OXA-48): 154.84 ± 0.02 µM
IC50 (OXA-109): 864.59 ± 0.02 µM
IC50 (OXA-143): 91.79 ± 0.01 µM
IC50 (OXA-210): 218.79 ± 0.02 µM
IC50 (OXA-211): 238.51 ± 0.01 µM
IC50 (OXA-229): 171.93 ± 0.01 µM
IC50 (OXA-23): 275.54 ± 0.02 µM
IC50 (OXA-24/40): 384.73 ± 0.02 µM
IC50 (OXA-51): 594.73 ± 0.01 µM
IC50 (OXA-97): 189.02 ± 0.01 µM
IC50 (OXA-240): 218.59 ± 0.03 µM
